Test results taken from patent US9480740B2, “Synthetic glucopyranosyl lipid adjuvants” (priority 2009, dated 2016).

Legend:
[1] = test system: human whole blood cells; test: Induction of immunostimulatory cytokines (MIP-1-α and TNF-α ELISA) in human whole blood; type: cell-based; settings: human whole blood from two donors, 1:5 serial dilutions, 20 hour incubation
Method: In this example, human whole blood cells were stimulated with Compound IX and ELISA assays were performed to detect the induction of immunostimulatory cytokines. Serial dilutions (1:5) of Compound IX and other adjuvants were performed with phosphate buffered saline in a 96 well plate for a total of 7 dilutions. 100 μl of freshly drawn human blood from two different donors were mixed and incubated with 100 μl of adjuvant dilutions. Following a 20 hour incubation, plates were centrifuged and supernatants (˜70 μl) were collected, avoiding red blood cells, and stored at −20° C. prior performing MIP-1-α and TNF-α ELISAs using standard biochemical procedures. […] Additionally, these primary donor results mimicked the results seen in human cell lines and extend these important findings in relation to the possible dose ranges and safety profiles for this compound.

[2] = test system: ID83 antigen (Mycobacterium tuberculosis antigenic polypeptide)-specific IFN-γ secreting splenocytes; test: ELISPOT of IFN-γ cytokine responses of splenocytes from mice vaccinated with ID83 antigen plus adjuvant; type: in vivo, Mice (C57BL/6)
[3] = molecular target: T1, TLR2 and TLR6 (Homo sapiens, UniProt O60603+Q9Y2C9); test: NF-kB reporter (secreted alkaline phosphatase, QUANTIBlue) assay in HEK 293 cells expressing TLR2 and TLR6; type: cell-based; settings: HEK 293 cells with TLR2, TLR6 and NF-kB reporter
T1 construct: host or cells: HEK 293
T1 sequence (O60603 21-784): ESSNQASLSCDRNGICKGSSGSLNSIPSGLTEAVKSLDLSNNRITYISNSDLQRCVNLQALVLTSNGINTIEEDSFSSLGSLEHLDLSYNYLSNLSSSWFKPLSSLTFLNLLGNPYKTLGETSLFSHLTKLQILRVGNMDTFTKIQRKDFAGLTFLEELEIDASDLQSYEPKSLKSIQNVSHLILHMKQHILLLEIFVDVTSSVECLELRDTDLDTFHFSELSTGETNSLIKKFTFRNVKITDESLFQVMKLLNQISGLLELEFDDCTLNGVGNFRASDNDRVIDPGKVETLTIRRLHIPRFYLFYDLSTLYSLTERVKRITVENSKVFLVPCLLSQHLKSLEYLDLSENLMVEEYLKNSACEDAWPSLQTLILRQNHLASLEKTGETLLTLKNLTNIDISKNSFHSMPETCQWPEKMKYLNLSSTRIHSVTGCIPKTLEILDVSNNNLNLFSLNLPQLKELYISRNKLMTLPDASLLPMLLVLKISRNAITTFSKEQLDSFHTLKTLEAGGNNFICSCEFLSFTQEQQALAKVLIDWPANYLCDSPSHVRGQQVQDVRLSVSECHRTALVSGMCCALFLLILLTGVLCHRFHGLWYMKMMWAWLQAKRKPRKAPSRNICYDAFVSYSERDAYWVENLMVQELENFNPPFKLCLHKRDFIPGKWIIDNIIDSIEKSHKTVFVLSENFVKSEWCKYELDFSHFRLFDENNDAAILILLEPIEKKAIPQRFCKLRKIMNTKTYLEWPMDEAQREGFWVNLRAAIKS
T1 sequence (Q9Y2C9 32-796): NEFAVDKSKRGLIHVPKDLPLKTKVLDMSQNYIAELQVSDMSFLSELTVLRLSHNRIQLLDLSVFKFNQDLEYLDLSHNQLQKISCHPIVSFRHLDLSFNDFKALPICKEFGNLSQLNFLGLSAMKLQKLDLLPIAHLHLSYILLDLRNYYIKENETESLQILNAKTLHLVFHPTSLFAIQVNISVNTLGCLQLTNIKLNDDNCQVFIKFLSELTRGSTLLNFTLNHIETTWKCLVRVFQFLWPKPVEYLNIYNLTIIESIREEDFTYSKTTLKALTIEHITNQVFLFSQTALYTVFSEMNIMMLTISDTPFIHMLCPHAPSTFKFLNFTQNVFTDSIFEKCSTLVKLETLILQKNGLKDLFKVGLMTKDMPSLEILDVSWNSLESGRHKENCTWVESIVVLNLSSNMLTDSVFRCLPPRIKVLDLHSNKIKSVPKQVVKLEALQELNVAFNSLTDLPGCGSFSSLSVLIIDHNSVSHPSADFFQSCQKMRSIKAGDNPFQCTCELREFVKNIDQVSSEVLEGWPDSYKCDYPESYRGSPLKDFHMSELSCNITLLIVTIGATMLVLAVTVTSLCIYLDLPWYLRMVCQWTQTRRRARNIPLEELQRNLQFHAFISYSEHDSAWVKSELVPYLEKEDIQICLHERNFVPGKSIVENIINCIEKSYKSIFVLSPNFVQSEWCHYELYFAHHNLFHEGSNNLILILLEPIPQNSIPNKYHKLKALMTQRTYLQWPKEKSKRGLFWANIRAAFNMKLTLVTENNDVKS
Method: (§1) Compound IX was tested in vitro using HEK 293 cells (InvivoGen) with expression vectors encoding 1) TLR4, MD-2, and CD14, or 2) TLR2 and TLR6 to define compound activity and dependence on TLR4, and to exclude activation of TLR2. These HEK 293 cell lines were further stably transfected with the NF-kB reporter vector pNifty-2 such that alkaline phosphatase is secreted into the growth media upon activation of the TLR signaling pathway. Transfected cell lines were plated at 5×10^4 cells per well in a 96-well plates and stimulated for 16-24 hours cultured in medium containing serial dilutions of Compound IX and other adjuvants. Secreted alkaline phosphatase activity was measured in the culture media using QUANTIBlue® assay (InvivoGen). The data was measured as enhancement of NF-kB above the PBS negative control. […] Compound IX was designed based on structural considerations of the reported atomic structure of MD2 and TLR4. […] Thus, it is expected that Compound IX and other illustrative compounds of the invention can be safely administered over a broad range of concentrations, which is highly desirable in the context of reproducibility of clinical outcomes among patients and for the safety in ranging a dose for adults and children. […]

[4] = molecular target: T2, TLR4, MD-2, and CD14 (Homo sapiens, UniProt O00206+Q9Y6Y9); test: NF-kB reporter (secreted alkaline phosphatase, QUANTIBlue) assay in HEK 293 cells expressing TLR4, MD-2 and CD14; type: cell-based
T2 construct: host or cells: HEK 293
T2 sequence (O00206 24-839): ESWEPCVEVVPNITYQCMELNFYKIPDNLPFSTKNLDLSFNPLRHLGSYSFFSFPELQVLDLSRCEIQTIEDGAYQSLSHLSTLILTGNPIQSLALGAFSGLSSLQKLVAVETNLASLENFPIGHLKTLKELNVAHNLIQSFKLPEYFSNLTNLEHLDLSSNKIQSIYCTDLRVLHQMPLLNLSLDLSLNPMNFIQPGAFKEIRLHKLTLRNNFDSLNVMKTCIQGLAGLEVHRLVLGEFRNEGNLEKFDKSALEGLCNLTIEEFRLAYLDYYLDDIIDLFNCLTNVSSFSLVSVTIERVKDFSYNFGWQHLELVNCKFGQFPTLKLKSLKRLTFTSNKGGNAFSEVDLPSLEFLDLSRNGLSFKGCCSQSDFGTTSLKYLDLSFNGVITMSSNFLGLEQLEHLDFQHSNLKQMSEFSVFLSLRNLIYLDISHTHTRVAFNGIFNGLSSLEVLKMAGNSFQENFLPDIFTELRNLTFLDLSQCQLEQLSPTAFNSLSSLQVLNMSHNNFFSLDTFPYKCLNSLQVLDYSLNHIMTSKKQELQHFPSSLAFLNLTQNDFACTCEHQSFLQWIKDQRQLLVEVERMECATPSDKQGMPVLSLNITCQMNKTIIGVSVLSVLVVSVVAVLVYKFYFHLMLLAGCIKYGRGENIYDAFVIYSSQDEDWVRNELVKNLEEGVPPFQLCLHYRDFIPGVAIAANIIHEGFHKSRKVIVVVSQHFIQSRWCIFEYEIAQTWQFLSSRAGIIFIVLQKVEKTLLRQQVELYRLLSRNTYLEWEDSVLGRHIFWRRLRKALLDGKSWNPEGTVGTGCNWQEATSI
T2 sequence (Q9Y6Y9 17-160 limits assumed): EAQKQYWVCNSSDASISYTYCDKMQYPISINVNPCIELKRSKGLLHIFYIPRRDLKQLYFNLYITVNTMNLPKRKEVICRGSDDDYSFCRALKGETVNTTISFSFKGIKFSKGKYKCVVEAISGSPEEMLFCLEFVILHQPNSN
Method: as §1

CCCCCCCCCCC[C@@H](O)CC(=O)N[C@@H]1C(O)OC(CO[C@@H]2OC(CO)[C@@H](OP(=O)(O)O)[C@H](OC(=O)C[C@@H](CCCCCCCCCCC)OC(=O)CCCCCCCCC)[C@@H]2NC(=O)C[C@@H](CCCCCCCCCCC)OC(=O)CCCCCCCCC)[C@@H](O)[C@@H]1OC(=O)C[C@H](O)CCCCCCCCCCC (stereo partly drawn) [Compound IX, (3R)-((2R,3S,4R,5S)-3-((R)-3-(DECANOYLOXY)TETRADECANAMIDO)-2-(((3S,4R,5S)-3,6-DIHYDROXY-5-((R)-3-HYDROXYTETRADECANAMIDO)-4-((R)-3-HYDROXYTETRADECANOYLOXY)TETRAHYDRO-2H-PYRAN-2-YL)METHOXY)-6-(HYDROXYMETHYL)-5-(PHOSPHONOOXY)TETRAHYDRO-2H-PYRAN-4-YL) 3-(DECANOYLOXY)TETRADECANOATE]
immunostimulatory activity (induction of MIP-1-α and TNF-α) [1]: has immunostimulatory activity in primary human blood cells
ID83 antigen-specific IFN-γ cytokine responses (IFN-γ secreting cells per million of splenocytes, ELISPOT) ([2]; C57BL/6 mice, 8 μg ID83 + 10 μg adjuvant in stable emulsion, three immunizations at three-week intervals, three weeks after the third immunization): induced robust ID83 antigen-specific cytokine responses
type of antigen-specific immune response induced (conclusion) ([2]; Compound IX in a stable oil formulation with ID83): induced predominantly antigen-specific immune responses of the cellular type (T cell) associated with the protective TH1 phenotype
induction of TLR2 [3]: did not appear to be associated with induction of TLR2
TLR4 agonist activity ([4]; HEK 293 cells with TLR4, MD-2, CD14 and NF-kB reporter): clear TLR4 agonist activity
shape of profile with increasing concentration ([4]; serial dilutions): plateaus rapidly as concentrations are increased
